# Where two headings read alike, the source gives them in different places.
# Tests used:
# Wild type (WT) mice [1] = conditions: WT mice receiving rasagiline, group mean, n = 18
# Description: In this experiment, lemon odor served as a familiar odor (F), and lime—as a novel odor (N) (FIG. 4A). Mice capable of discriminating between the odors will spend more time sniffing the new odor. The testing parameter was percentage of time of sniffing novel odor out of total time of sniffing.
# [2] = system: alpha-synuclein over-expressing (mutants) mice (Thy1-aSyn)
# Description: (§1) Transgenic mice overexpressing alpha-synuclein under the Thy1 promoter (Thy1-aSyn) have high levels of alpha-synuclein expression throughout the brain but no loss of nigrostriatal dopamine neurons up to 8 months. […] Overexpression of alpha-synuclein is sufficient to cause olfactory deficits in mice similar to that observed in patients with PD (2).
# (§2) The experiment was further subdivided into two levels of odor intensity:
# (§3) Light intensity: two days of odor impregnation
# (§4) Strong intensity: seven days of odor impregnation
# (§5) The testing parameter was percentage of time of sniffing novel odor out of total time of sniffing.
# [3] = system: alpha-synuclein over-expressing (mutants) mice (Thy1-aSyn); conditions: α-syn mutants; in particular at the 1.5 min interval
# Description: as §1
# (§6) The underlying principle was that if mice would spend less time sniffing the odor at T2 (second exposure to the odor) their short term olfactory memory is intact. The testing parameter was percentage of time of sniffing at T2, calculated as time of sniffing at T2 out of total time of sniffing at T1 (first exposure) & T2.
# [4] = system: alpha-synuclein over-expressing (mutants) mice (Thy1-aSyn); remark: listed apart in the source
# Description: as §1
# (§7) The testing parameters were percentage of time exploring the novel object out of total time of the trial.
# Wild type (WT) mice [5] = conditions: strong intensity
# Description: as §2, §3, §4, §5
# [6] = system: alpha-synuclein over-expressing (mutants) mice (Thy1-aSyn); conditions: α-syn mutants receiving rasagiline; group mean, n = 19
# Description: as §1
# (§8) The time periods that mice spent sniffing lemon and lime were compared. The testing parameters were percentage of time of sniffing lemon out of total time of sniffing and percentage of time of sniffing lime out of total time of sniffing.
# Wild type (WT) mice [7] = system: Wild type (WT) mice
# Description: as §6
# [8] = system: alpha-synuclein over-expressing (mutants) mice (Thy1-aSyn); remark: listed apart in the source
# Description: Transgenic mice overexpressing alpha-synuclein under the Thy1 promoter (Thy1-aSyn) have high levels of alpha-synuclein expression throughout the brain but no loss of nigrostriatal dopamine neurons up to 8 months. […] Overexpression of alpha-synuclein is sufficient to cause olfactory deficits in mice similar to that observed in patients with PD (2). […] In this experiment, lemon odor served as a familiar odor (F), and lime—as a novel odor (N) (FIG. 4A). Mice capable of discriminating between the odors will spend more time sniffing the new odor. The testing parameter was percentage of time of sniffing novel odor out of total time of sniffing.
# [9] = system: alpha-synuclein over-expressing (mutants) mice (Thy1-aSyn); remark: listed apart in the source
# Description: as §1
# Odor detection threshold is the lowest concentration (dilution 10^−8; 10^−6; 10^−4 in the water) at which mice are able to detect a novel odor. Upon detection of a novel odor, mice will spend more time sniffing it. The detection threshold was measured as percentage of time sniffing novel odor out of total time of sniffing.
# Wild type (WT) mice [10] = conditions: for Time of exploration: novel object; for Time of exploration / % Time exploring novel object: WT mice receiving rasagiline, individual mice, Mean row = group mean (n = 9); for % Time exploring novel object: out of total time of the trial
# Description: as §7
# [11] = system: transgenic mouse models for the study of olfactory loss
# Description: (Lane et al., “Development of transgenic mouse models for the study of human olfactory dysfunction”, Am J. Rhinol., 2005, May-June; 19(3):229-35.)
# Wild type (WT) mice [12] = conditions: WT mice receiving rasagiline; group mean, n = 9
# Description: The objective was to determine whether the odor discrimination deficit was specific to the olfactory function (FIG. 7A).
# The testing parameters was percentage of time exploring the novel object/odor out of total time of exploration.
# [13] = system: alpha-synuclein over-expressing (mutants) mice (Thy1-aSyn); remark: listed apart in the source
# Description: as §1, with “(2). […] The objective was to determine whether the odor discrimination deficit was specific to the olfactory function (FIG. 7A). The testing parameters was percentage of time exploring the novel object/odor out of total time of exploration.” for “(2).”
# Wild type (WT) mice [14] = conditions: WT mice receiving rasagiline; group mean, n = 18
# Description: as §8
# [15] = non-social odors, N = lime (novel)
# [16] = strong social odors, α-syn mutants receiving rasagiline, group mean, n = 20
# [17] = non-social odors, N = lime (novel), α-syn mutants receiving rasagiline, group mean, n = 20
# [18] = α-syn mutants receiving rasagiline, group mean, n = 9
compound,measurement,setting,value
"C#CCN[C@@H]1CCc2ccccc21 [Rasagiline, R(+)-N-propargyl-1-aminoindan]",Total time sniffing,Wild type (WT) mice [1]; non-social odors lemon/lime,42.5
same,Time Sniffing F,"Wild type (WT) mice [1]; non-social odors, F = lemon (familiar)",11.9
same,% time sniffing N,Wild type (WT) mice [1]; [15],72.1%
same,Time Sniffing N,Wild type (WT) mice [1]; [15],30.6
same,Time Sniffing F,[2]; [16],3.1
same,Total time sniffing,[2]; [16],12.4
same,discrimination of light social odor,"[2]; α-syn mutants, light intensity",improves discrimination of light social odor
same,discrimination of strong social odor,"[2]; α-syn mutants, strong intensity",improves discrimination of strong social odor
same,effect on short term olfactory memory,[3],positive effect on short term olfactory memory
same,Time of exploration,"[4]; novel object, α-syn mutants receiving rasagiline, group mean, n = 11",79.3 s
same,% Time exploring novel object,"[4]; out of total time of the trial, α-syn mutants receiving rasagiline, group mean, n = 11",26.4%
same,effect on novel object exploration,[4]; α-syn mutants,no effect on novel object exploration
same,discrimination of strong social odor,Wild type (WT) mice [5],improves discrimination of strong social odor
same,% Time sniffing Lime,[6],52.6%
same,Time of sniffing (s) Lemon,[6],6.1 s
same,Time of sniffing (s) Lime,[6],8.7 s
same,Time of sniffing (s) Total,[6],14.9 s
same,short-term olfactory memory compared to WT-water,Wild type (WT) mice [7]; ITI of 2 min,reduced short-term olfactory memory compared to WT-water
same,effect on short term olfactory memory,Wild type (WT) mice [7]; in particular at the 1.5 min interval,positive effect on short term olfactory memory
same,Total time sniffing,"[8]; non-social odors lemon/lime, α-syn mutants receiving rasagiline, group mean, n = 20",14.8
same,Time Sniffing F,"[8]; non-social odors, F = lemon (familiar), α-syn mutants receiving rasagiline, group mean, n = 20",3.7
same,% time sniffing N,[8]; [17],70.2%
same,Time Sniffing N,[8]; [17],11.2
same,discrimination of two close non-social odors,"[8]; α-syn mutant mice, lemon (familiar) vs lime (novel)",improves discrimination of two close non-social odors
same,odor threshold (lowest odor dilution detected),"[9]; α-syn mutants with rasagiline, untreated mutants 10^−4, dilution in water",10^6
same,odor detection ability,"[9]; α-syn mutants, odor concentration 10^−6",improved the odor detection ability of α-syn mutants
same,effect on novel object exploration,Wild type (WT) mice [10]; WT mice,no effect on novel object exploration
same,Time of exploration,Wild type (WT) mice [10]; listed as Rasagilina,100.0 s
same,Time of exploration,Wild type (WT) mice [10]; listed as Rasagilins,115.1 s
same,% Time exploring novel object,Wild type (WT) mice [10]; listed as Rasagilina,33.3%
same,% Time exploring novel object,Wild type (WT) mice [10]; listed as Rasagilins,38.4%
same,treating the symptoms of olfactory dysfunction,[11]; each of two transgenic mouse models,effective in treating the symptoms of olfactory dysfunction
same,functional decline,[11]; transgenic mouse models,effective in reducing the functional decline
same,rate of progression of olfactory dysfunction,[11]; transgenic mouse models,effective in reducing the rate of progression of olfactory dysfunction
same,% Time exploring novel object,Wild type (WT) mice [12],96.2%
same,Time of Exploration (s) Familiar object,Wild type (WT) mice [12],3.0 s
same,Time of Exploration (s) Novel object,Wild type (WT) mice [12],85.0 s
same,Time of Exploration (s) Total,Wild type (WT) mice [12],88.0 s
same,novel object/odor discrimination ability,[13]; α-syn mutants,improves the discrimination ability of the mutants to substantially WT levels
same,% Time exploring novel object,[13]; [18],92.2%
same,Time of Exploration (s) Familiar object,[13]; [18],3.6 s
same,Time of Exploration (s) Novel object,[13]; [18],48.7 s
same,Time of Exploration (s) Total,[13]; [18],52.4 s
same,% Time sniffing Lemon,Wild type (WT) mice [14],52.9%
same,% Time sniffing Lime,Wild type (WT) mice [14],47.1%
same,Time of sniffing (s) Lemon,Wild type (WT) mice [14],25.9 s
same,Time of sniffing (s) Lime,Wild type (WT) mice [14],23.3 s
same,Time of sniffing (s) Total,Wild type (WT) mice [14],49.2 s
